# According to US9456992B2 (XSPRAY MICROPARTICLES AB, priority 2012, dated 2016):
# Where a name gives a salt, the structure may show the parent alone.
# Experiment: Dissolution measurement assay (apparent solubility, non-sink) in FeSSIF solution (pH 5)
# Assay type: physicochemical
# Protocol: The medium was prepared in accordance with the manufacturer's instructions. The amount of powder added depends on the wished “total PKI concentration”. […] For other experiments, the drug load was first estimated by HPLC and the amount of powder to obtain the drug concentration was calculated.
# Typically, the powder was added in a 8 mL glass bottle and 7 mL of solution was added (typically FaSSIF, FeSSIF or SGF). The glass bottle was put on a shaker (approximately 1 rotation per minute) for dissolution. Samples of 500 μl where taken after different times, and subsequently centrifuged at approximately 15000 g for 3 minutes. The resulting supernatant was then analyzed by HPLC (C18 column Eclipse, 4.6 mm×15 cm, 1 mL/min, detection at 254-400 nM. Generally samples were taken after 5, 30 and 90 min and eventually 150 min.
# The experiments were carried out by measuring concentration of solubilized PKI (mg/L) after 5, 30 and 90 minutes dissolution in a solution at about pH 6.5, namely FaSSIF (Fasted State Simulated Intestinal Fluid). Further, experiments were carried out in an alternative solution at about pH 5, namely FeSSIF (Fed State Simulated Intestinal Fluid). Samples of the solution were taken at various time intervals and the amount of protein kinase inhibitor was measured by the dissolution measurement assay described above.
# The experiments were carried out by measuring concentration of PKI (mg/L) after 5, 30 and 90 minutes dissolution in a solution at about pH 6.5, namely FaSSIF (Fasted State Simulated Intestinal Fluid). Further, experiments were carried out in an alternative solution at about pH 5, namely FeSSIF (Fed State Simulated Intestinal Fluid). Samples of the solution were taken at various time intervals and the amount of PKI was measured by the dissolution measurement assay described above.
"% solubilized 30 min. (nilotinib HCl, after 30 minutes dissolution)","% solubilized 30 min. (erlotinib HCl, 30 min dissolution)","AUC/ 90 min. (erlotinib HCl, AUC during 90 min dissolution)",SMILES
0.18%,,,"Cc1cn(-c2cc(NC(=O)c3ccc(C)c(Nc4nccc(-c5cccnc5)n4)c3)cc(C(F)(F)F)c2)cn1 [Exp 41, Nilotinib HCl]"
,19.0%,16303 Mg/min/L,"C#Cc1cccc(Nc2ncnc3cc(OCCOC)c(OCCOC)cc23)c1 [Exp 69, Erlotinib HCl]"
